According to US12290596B2, “Compositions and methods for the treatment of opioid overdose” (priority 2021, dated 2025):

Assay: Three-treatment crossover pharmacokinetics of IN nalmefene, three dosing regimens (Example 13)
Conditions: for half-life / AUC(0-t) / AUC(0-inf) / Cmax / Vd/F / concentration at 3 h / concentration at 4 h / concentration at 6 h / concentration at 8 h / concentration at 12 h / concentration at 18 h / concentration at 24 h / concentration at 48 h: human, plasma, other: intranasal (IN spray); for AUC(0-t) / AUC(0-inf) / Cmax / Vd/F: mean; for AUC(0-inf): AUCinf; for Vd/F: Vz/F; for concentration at 3 h / concentration at 4 h / concentration at 6 h / concentration at 8 h / concentration at 12 h / concentration at 18 h / concentration at 24 h / concentration at 48 h: T1 (3 mg IN, one spray in one nostril)
[1] = Treatment A (T1) 3 mg in one nostril
[2] = Treatment B (T2) 3 mg in each nostril (6 mg)
[3] = Treatment C (T3) 6 mg in one nostril
[4] = 3 mg, Treatment A (T1) 3 mg in one nostril
[5] = 6 mg, Treatment B (T2) 3 mg in each nostril (6 mg)
[6] = 6 mg, Treatment C (T3) 6 mg in one nostril

C=C1CC[C@@]2(O)[C@H]3Cc4ccc(O)c5c4[C@@]2(CCN3CC2CC2)[C@H]1O5 [Nalmefene, 17-cyclopropylmethyl-4,5α-epoxy-6-methylenemorphinan-3,14-diol]
Dose-normalized Cmax lower after Treatment C (T3) compared to Treatment A (T1) (ANOVA): approximately 19%
AUC0-2.5 min/D, mean [1]: 0.00276 ng·h/mL/mg
AUC0-5 min/D, mean [1]: 0.0206 ng·h/mL/mg
AUC0-7.5 min/D, mean [1]: 0.0728 ng·h/mL/mg
AUC0-10 min/D, mean [1]: 0.160 ng·h/mL/mg
AUC0-15 min/D, mean [1]: 0.393 ng·h/mL/mg
AUC0-20 min/D, mean [1]: 0.639 ng·h/mL/mg
AUC0-30 min/D, mean [1]: 1.06 ng·h/mL/mg
AUCextrap, mean [1]: 4.22%
CL/F, mean [1]: 66.9 L/h
Cmax/D, mean [1]: 3.59 ng/mL/mg
AUC0-2.5 min/D, mean [2]: 0.0072 ng·h/mL/mg
AUC0-5 min/D, mean [2]: 0.0369 ng·h/mL/mg
AUC0-7.5 min/D, mean [2]: 0.106 ng·h/mL/mg
AUC0-10 min/D, mean [2]: 0.202 ng·h/mL/mg
AUC0-15 min/D, mean [2]: 0.445 ng·h/mL/mg
AUC0-20 min/D, mean [2]: 0.691 ng·h/mL/mg
AUC0-30 min/D, mean [2]: 1.08 ng·h/mL/mg
AUCextrap, mean [2]: 3.61%
AUClast/D, mean [2]: 14.4 ng·h/mL/mg
CL/F, mean [2]: 69.2 L/h
Cmax/D, mean [2]: 3.70 ng/mL/mg
AUC0-2.5 min/D, mean [3]: 0.00455 ng·h/mL/mg
AUC0-5 min/D, mean [3]: 0.0244 ng·h/mL/mg
AUC0-7.5 min/D, mean [3]: 0.0803 ng·h/mL/mg
AUC0-10 min/D, mean [3]: 0.165 ng·h/mL/mg
AUC0-15 min/D, mean [3]: 0.374 ng·h/mL/mg
AUC0-20 min/D, mean [3]: 0.588 ng·h/mL/mg
AUC0-30 min/D, mean [3]: 0.931 ng·h/mL/mg
AUCextrap, mean [3]: 4.18%
AUClast/D, mean [3]: 13.7 ng·h/mL/mg
CL/F, mean [3]: 73.3 L/h
Cmax/D, mean [3]: 3.15 ng/mL/mg
half-life (3 mg): 11.4 h
AUC(0-t) (3 mg, AUC0-5 min, Treatment A (T1) 3 mg in one nostril): 0.0618 ng·h/mL
AUC(0-t) (3 mg, AUC0-10 min, Treatment A (T1) 3 mg in one nostril): 0.48 ng·h/mL
AUC(0-t) (3 mg, AUC0-15 min, Treatment A (T1) 3 mg in one nostril): 1.18 ng·h/mL
AUC(0-t) (3 mg, AUC0-20 min, Treatment A (T1) 3 mg in one nostril): 1.92 ng·h/mL
AUC(0-t) (3 mg, AUC0-30 min, Treatment A (T1) 3 mg in one nostril): 3.19 ng·h/mL
AUC(0-t) (3 mg, AUC0-[…], Treatment A (T1) 3 mg in one nostril): 0.219 ng·h/mL
AUC(0-inf) [4]: 46.8 ng·h/mL
AUC(0-t) (3 mg, AUClast, Treatment A (T1) 3 mg in one nostril): 44.9 ng·h/mL
Cmax [4]: 10.8 ng/mL
Vd/F [4]: 1090 L
concentration at 3 h (3 mg, Max): 6.01 ng/mL
concentration at 4 h (3 mg, Max): 4.86 ng/mL
concentration at 6 h (3 mg, Max): 3.01 ng/mL
concentration at 8 h (3 mg, Max): 2.19 ng/mL
concentration at 12 h (3 mg, Max): 1.51 ng/mL
concentration at 18 h (3 mg, Max): 0.851 ng/mL
concentration at 24 h (3 mg, Max): 0.785 ng/mL
concentration at 48 h (3 mg, Max): 0.184 ng/mL
concentration at 3 h (3 mg, Median): 3.51 ng/mL
concentration at 4 h (3 mg, Median): 2.78 ng/mL
concentration at 6 h (3 mg, Median): 2.07 ng/mL
concentration at 8 h (3 mg, Median): 1.34 ng/mL
concentration at 12 h (3 mg, Median): 0.985 ng/mL
concentration at 18 h (3 mg, Median): 0.581 ng/mL
concentration at 24 h (3 mg, Median): 0.37 ng/mL
concentration at 48 h (3 mg, Median): 0.088 ng/mL
concentration at 12 h (3 mg, Min): 0.727 ng/mL
concentration at 18 h (3 mg, Min): 0.37 ng/mL
concentration at 24 h (3 mg, Min): 0.261 ng/mL
concentration at 48 h (3 mg, Min): 0 ng/mL
half-life (6 mg): 11.3 h
AUC(0-t) (6 mg, AUC0-5 min, Treatment B (T2) 3 mg in each nostril (6 mg)): 0.222 ng·h/mL
AUC(0-t) (6 mg, AUC0-5 min, Treatment C (T3) 6 mg in one nostril): 0.146 ng·h/mL
AUC(0-t) (6 mg, AUC0-10 min, Treatment B (T2) 3 mg in each nostril (6 mg)): 1.21 ng·h/mL
AUC(0-t) (6 mg, AUC0-10 min, Treatment C (T3) 6 mg in one nostril): 0.988 ng·h/mL
AUC(0-t) (6 mg, AUC0-15 min, Treatment B (T2) 3 mg in each nostril (6 mg)): 2.67 ng·h/mL
AUC(0-t) (6 mg, AUC0-15 min, Treatment C (T3) 6 mg in one nostril): 2.24 ng·h/mL
AUC(0-t) (6 mg, AUC0-20 min, Treatment B (T2) 3 mg in each nostril (6 mg)): 4.14 ng·h/mL
AUC(0-t) (6 mg, AUC0-20 min, Treatment C (T3) 6 mg in one nostril): 3.53 ng·h/mL
AUC(0-t) (6 mg, AUC0-30 min, Treatment B (T2) 3 mg in each nostril (6 mg)): 6.46 ng·h/mL
AUC(0-t) (6 mg, AUC0-30 min, Treatment C (T3) 6 mg in one nostril): 5.58 ng·h/mL
AUC(0-inf) [5]: 89.5 ng·h/mL
AUC(0-inf) [6]: 85.7 ng·h/mL
AUC(0-t) (6 mg, AUClast, Treatment B (T2) 3 mg in each nostril (6 mg)): 86.2 ng·h/mL
AUC(0-t) (6 mg, AUClast, Treatment C (T3) 6 mg in one nostril): 82.1 ng·h/mL
Cmax [5]: 22.2 ng/mL
Vd/F [5]: 1120 L
Vd/F [6]: 1190 L
